Measurements from US10881668B2, “Acetamide thienotriazolodiazepines and uses thereof” (Dana-Farber Cancer Institute, Inc., priority 2015, dated 2021).
Like-named read-outs stand apart in the source and are kept apart here.

Key:
[1] = system: NMC797 cell line (BRD4 dependant NUT midline carcinoma line); assay: Cell proliferation assay (ATP content), NMC797; assay type: cell-based; settings: 48-hour incubation
Description: (§1) The IC50 values of the compounds were determined by ALPHASCREENING assays for BRD4 and BRDT protein. NMC797 cell line is a BRD4 dependant NUT midline carcinoma line.
Cell Proliferation Assay.
Cells were seeded into white, 384-well microtiter plates (Nunc) at 500 cells per well in a total volume of 50 μL media. The 797, TT, and TE10 cells were grown in DMEM containing 1% penicillin/streptomycin and 10% FBS. The Per403 cells were grown in DMEM containing 1% penicillin/streptomycin and 20% FBS. Compounds were delivered to microtiter assay plates by robotic pin transfer (PerkinElmer JANUS equipped with a V&P Scientific 100 nL pin tool). Following a 48-hour incubation at 37° C., cells were lysed and wells were assessed for total ATP content using a commercial proliferation assay (Cell TITERGLO; Promega). Replicate measurements were analyzed with respect to dose and estimates of IC50 were calculated by logistic regression ([…] PRISM).

[2] = Pharmacokinetics in male CD1 mice, oral administration; settings: for F: oral 10 mg/kg (IV 5 mg/kg)
Description: (§4) Pharmacokinetic parameters were determined by administration of a candidate bromodomain inhibitor to male CD1 mice. Intravenous doses were delivered at 5 mg/kg, and oral doses at 10 mg/kg (N=3). […] The compound concentration in mouse blood was monitored over 24-hour time period to check the compound concentration in blood at 5 min, 30 min, 1 hour, 2 hours, 6 hours, 12 hours, and 24 hour via a series bleeding.

[3] = Pharmacokinetics in male CD1 mice, IV administration; settings: whole blood; for AUC(0-inf) / AUC(0-t) / MRT inf / Vd / clearance / half-life: male, CD1, mouse, iv, 5 mg/kg
Description: as §4

BRDT(1) = BRDT(1) (Homo sapiens (Human), UniProt Q58F21); assay: AlphaScreen acetyl-histone binding assay, BRDT(1); settings: H4K5acK8acK12acK16ac peptide
Description: as §1
(§2) Acetyl-Histone Binding Assay.
(§3) Assays were performed as described previously with minor modifications from the manufacturer's protocol (PerkinElmer, USA). All reagents were diluted in 50 mM HEPES, 100 mM NaCl, 0.1% BSA, pH 7.4 supplemented with 0.05% CHAPS and allowed to equilibrate to room temperature prior to addition to plates. A 24-point 1:2 serial dilution of the ligands was prepared over the range of 150-0 μM and 4 μl transferred to low-volume 384-well plates (PROXIPLATE™-384 Plus, PerkinElmer, USA), followed by 4 μl of HIS-tagged protein (BRD4/1, 250 nM, BRD4/2 and CREBBP, 2000 nM). […] Plates were sealed and incubated for a further 30 minutes, before the addition of 4 μl of streptavidin-coated donor beads (25 μg/ml) and 4 μl nickel chelate acceptor beads (25 μg/ml) under low light conditions. Plates were foil-sealed to protect from light, incubated at room temperature for 60 minutes and read on a PHERASTAR FS plate reader (BMG Labtech, Germany) using an ALPHASCREEN 680 excitation/570 emission filter set. IC50 values were calculated in Prism 5 ([…] Software, USA) after normalization against corresponding DMSO controls and are given as the final concentration of compound in the 20 μl reaction volume.

BRD4(1) = BRD4(1) (Homo sapiens (Human), UniProt O60885); assay: AlphaScreen acetyl-histone binding assay, BRD4(1); settings: H4K5acK8acK12acK16ac peptide
Description: as §1, §2, §3

[4] = male, CD1, mouse, in vivo
Description: as §4

in vivo = settings: male, CD1, mouse, iv, 1 mg/kg
Description: as §4

[5] = male, CD1, mouse, whole blood, po, 10 mg/kg
[6] = male CD1 mice, oral 10 mg/kg, whole blood, N=3

In the case of Cc1sc2c(c1C)C(c1ccc(Cl)cc1)=N[C@@H](CC(=O)NC[C@H](C)O)c1nnc(C)n1-2 [Compound 501], the IC50 ([1]; NMC-797, NMC797 cells) is reported as 30 nM, the F ([2]; male CD1 mice, N=3) is reported as 53.7% and the AUC(0-inf) [2, 5] is reported as 2570 ng·h/mL. For the same compound, the AUC(0-t) [2, 5] was 2520 ng·h/mL, the Cmax [2, 5] was 1260 ng/mL and the Tmax [2, 5] was 0.417 h. It also gave a half-life [2, 5] of 1.54 h, an AUC(0-inf) [3] of 2390 ng·h/mL and an AUC(0-t) [3] of 2380 ng·h/mL. The MRT inf [3] was 0.718 h, the Vd [3] was 1.54 L/kg and the clearance [3] was 36.7 mL/min/kg. The half-life [3] was 1.51 h and the IC50 (BRDT(1)) was 82 nM.

With Cc1sc2c(c1C)C(c1ccc(Cl)cc1)=N[C@@H](CC(=O)NC[C@@H](C)O)c1nnc(C)n1-2 [Compound 502] the IC50 ([1]; NMC-797, NMC797 cells) was 29 nM, the F ([2]; male CD1 mice, N=3) was 53.4% and the AUC(0-inf) [2, 5] was 3160 ng·h/mL. It also gave an AUC(0-t) [2, 5] of 3100 ng·h/mL, a Cmax [2, 5] of 1430 ng/mL and a Tmax [2, 5] of 0.5 h. The half-life [2, 5] was 1.37 h, the AUC(0-inf) [3] was 2960 ng·h/mL and the AUC(0-t) [3] was 2940 ng·h/mL. The MRT inf [3] was 0.882 h, the Vd [3] was 1.48 L/kg and the clearance [3] was 29.5 mL/min/kg. It also gave a half-life [3] of 1.06 h and an IC50 (BRDT(1)) of 61 nM.

Work on Cc1sc2c(c1C)C(c1ccc(Cl)cc1)=N[C@@H](CC(=O)NCC(C)(C)O)c1nnc(C)n1-2 [Compound 503] yielded an IC50 (BRD4(1)) of 44 nM, an IC50 ([1]; NMC-797, NMC797 cells) of 42 nM and an IC50 (BRDT(1)) of 89 nM.

In the case of Cc1sc2c(c1C)C(c1ccc(Cl)cc1)=N[C@@H](CC(=O)NCC(F)F)c1nnc(C)n1-2 [Compound 504], the IC50 ([1]; NMC-797, NMC797 cells) is reported as 54 nM and the IC50 (BRDT(1)) is reported as 69 nM.

Cc1sc2c(c1C)C(c1ccc(Cl)cc1)=N[C@@H](CC(=O)NCCC(F)F)c1nnc(C)n1-2 [Compound 505] showed an IC50 ([1]; NMC-797, NMC797 cells) of 93 nM and an IC50 (BRDT(1)) of 75 nM.

With Cc1sc2c(c1C)C(c1ccc(Cl)cc1)=N[C@@H](CC(=O)NCC1CCN(CCN(C)C)CC1)c1nnc(C)n1-2 [Compound 601] the F [4] was 4% and the half-life (in vivo) was 11.7 h.

Compound Cc1sc2c(c1C)C(c1ccc(Cl)cc1)=N[C@@H](CC(=O)NCCCN1CCC(N3CCCCC3)CC1)c1nnc(C)n1-2 [Compound 602] has an F [4] of 2% and a half-life (in vivo) of 21 h.

In the case of Cc1sc2c(c1C)C(c1ccc(Cl)cc1)=N[C@@H](CC(=O)N1CCC(N3CCCCC3)CC1)c1nnc(C)n1-2 [Compound 603], the F [4] is reported as 20% and the half-life (in vivo) is reported as 1 h.

Compound Cc1sc2c(c1C)C(c1ccc(Cl)cc1)=N[C@@H](CC(=O)NCCCN1CCCC1)c1nnc(C)n1-2 [Compound 604] has an F [4] of 7% and a half-life (in vivo) of 2 h.

Cc1sc2c(c1C)C(c1ccc(Cl)cc1)=N[C@@H](CC(=O)N1CCn3c(nnc3C(F)(F)F)C1)c1nnc(C)n1-2 [Compound 605] gave an F [4] of 6% and a half-life (in vivo) of 0.5 h.

For Cc1sc2c(c1C)C(c1ccc(Cl)cc1)=N[C@@H](CC(=O)OC(C)(C)C)c1nnc(C)n1-2 [JQ1, reference compound], the IC50 ([1]; NMC797 cells) was 21 nM, the AUCINF [2, 6] was 2090 ng·h/mL and the AUClast [2, 6] was 2040 ng·h/mL. For the same compound, the Cmax [2, 6] was 1180 ng/mL, the Tmax [2, 6] was 0.250 h and the AUCINF ([3]; male CD1 mice, IV 5 mg/kg, N=3) was 2130 ng·h/mL. For the same compound, the AUClast ([3]; male CD1 mice, IV 5 mg/kg, N=3) was 2130 ng·h/mL, the CL ([3]; male CD1 mice, IV 5 mg/kg, N=3) was 39.2 mL/min/kg and the MRTINF ([3]; male CD1 mice, IV 5 mg/kg, N=3) was 0.861 h.
